{"source": "the NIST ThermoML archive (doi:10.1021/acs.jced.5b00804)", "conditions": "101.33 kPa, Liquid; for viscosity: Capillary tube (Ostwald / Ubbelohde) method; for mass density: Pycnometric method", "note": "Numbers after ± are expanded uncertainties.", "data": [{"smiles": "NCCN", "note": "[ethane-1,2-diamine]", "values": [{"measurement": "viscosity", "setting": "303.15 K", "result": "1.26 ± 0.02", "unit": "mPa·s"}, {"measurement": "mass density", "setting": "303.15 K", "result": "890.3 ± 1.8", "unit": "kg/m3"}, {"measurement": "viscosity", "setting": "308.15 K", "result": "1.18 ± 0.02", "unit": "mPa·s"}, {"measurement": "mass density", "setting": "308.15 K", "result": "885.9 ± 1.8", "unit": "kg/m3"}, {"measurement": "viscosity", "setting": "313.15 K", "result": "1.03 ± 0.01", "unit": "mPa·s"}, {"measurement": "mass density", "setting": "313.15 K", "result": "881.7 ± 1.8", "unit": "kg/m3"}, {"measurement": "viscosity", "setting": "318.15 K", "result": "0.938 ± 0.011", "unit": "mPa·s"}, {"measurement": "mass density", "setting": "318.15 K", "result": "876.9 ± 1.8", "unit": "kg/m3"}, {"measurement": "viscosity", "setting": "323.15 K", "result": "0.905 ± 0.011", "unit": "mPa·s"}, {"measurement": "mass density", "setting": "323.15 K", "result": "871.3 ± 1.8", "unit": "kg/m3"}]}]}
